Data taken from patent US20250154134A1, “COMPOUND AS FAK INHIBITOR AND USE THEREOF” (WIGEN BIOMEDICINE TECHNOLOGY (SHANGHAI) CO., LTD., priority 2022, published 2025).
pIC50: −log10 of the molar value.

Key:
[1] = biological target: FAK recombinant protein (Homo sapiens (Human), UniProt Q05397); experiment: Inhibitory activity against FAK enzyme (HTRF, TK substrate); type: biochemical
Description: A compound serially diluted with DMSO was mixed with a FAK recombinant protein. After the mixture was left to stand at room temperature for 10 min, a biotin-labeled TK substrate (TK) and ATP were added. […] The inhibition percentage and IC50 of the compound were calculated compared to the DMSO control group.

[2] = tested on: PC3 cells; experiment: PC3 cell proliferation, 2D activity assay (Cell Titer-Lumi, 72 h); type: cell-based, human; details: Homo sapiens, PC-3, read-out: 2D inhibitory activity against PC3 cells IC50
Description: (§1) 2D activity assay: 1200 PC3 cells were seeded in a 96-well plate. After overnight adherence culture, A compound serially diluted was added. […] The growth of the cells was evaluated, and the IC50 of the compound inhibiting cell growth was calculated. 3D activity assay: PC3 cells were seeded in a 96-well plate at 1200 cells/well, and 3D culture was performed. 14 days after a compound serially diluted was added, the growth of the cells was measured. The inhibition percentage and IC50 of the compound were calculated compared to the DMSO control group.

[3] = tested on: PC3 cells; experiment: PC3 cell proliferation, 3D activity assay (3D culture, 14 days); type: cell-based, human; details: Homo sapiens, PC-3, 336 h, read-out: 3D inhibitory activity against PC3 cells IC50
Description: as §1

Sequence of FAK recombinant protein (Q05397 whole entry): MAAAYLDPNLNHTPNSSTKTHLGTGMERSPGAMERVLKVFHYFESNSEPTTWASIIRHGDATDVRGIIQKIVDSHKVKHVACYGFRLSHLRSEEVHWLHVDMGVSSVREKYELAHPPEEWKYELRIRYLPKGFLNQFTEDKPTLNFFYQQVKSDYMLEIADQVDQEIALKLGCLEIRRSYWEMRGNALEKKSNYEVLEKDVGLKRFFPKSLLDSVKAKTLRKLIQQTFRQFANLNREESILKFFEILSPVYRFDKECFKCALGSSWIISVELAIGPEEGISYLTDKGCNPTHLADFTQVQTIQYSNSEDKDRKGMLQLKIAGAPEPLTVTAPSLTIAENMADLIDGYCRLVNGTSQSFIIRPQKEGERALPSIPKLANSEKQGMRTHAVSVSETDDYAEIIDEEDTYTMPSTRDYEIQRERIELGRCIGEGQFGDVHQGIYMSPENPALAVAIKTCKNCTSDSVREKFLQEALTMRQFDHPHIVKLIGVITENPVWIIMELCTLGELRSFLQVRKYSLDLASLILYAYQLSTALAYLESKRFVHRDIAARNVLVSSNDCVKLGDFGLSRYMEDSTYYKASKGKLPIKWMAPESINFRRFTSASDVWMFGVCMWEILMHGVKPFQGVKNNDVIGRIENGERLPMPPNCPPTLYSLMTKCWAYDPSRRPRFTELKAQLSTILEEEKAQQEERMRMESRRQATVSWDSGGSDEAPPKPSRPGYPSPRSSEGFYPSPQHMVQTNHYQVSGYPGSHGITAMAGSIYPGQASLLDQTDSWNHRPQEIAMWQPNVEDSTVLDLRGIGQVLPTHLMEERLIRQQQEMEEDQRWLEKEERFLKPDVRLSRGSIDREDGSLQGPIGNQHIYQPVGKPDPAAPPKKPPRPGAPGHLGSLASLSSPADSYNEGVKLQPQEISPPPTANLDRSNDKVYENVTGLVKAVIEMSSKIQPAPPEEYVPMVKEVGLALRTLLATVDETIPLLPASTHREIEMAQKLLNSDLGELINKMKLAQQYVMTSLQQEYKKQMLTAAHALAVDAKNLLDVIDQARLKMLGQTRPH

pIC50 [1] | pIC50 [2] | pIC50 [3] | SMILES
> 7.70 | < 5.70 | 7.30 to 8.30 | COc1cc(C(=O)NC2CCN(C)CC2)c(F)cc1Nc1ncc(C(F)(F)F)c(Cc2cccc3c2C(=O)N(C)C32CC2)n1 [Compound 100, 2-fluoro-5-methoxy-4-((4-((2′-methyl-3′-oxospiro[cyclopropane-1,1′-isoindolin]-4′-yl)methyl)-5-(trifluoromethyl)pyrimidin-2-yl)amino)-N-(1-methylpiperidin-4-yl)benzamide]
> 7.70 | < 5.70 | 7.30 to 8.30 | COc1cc(C(=O)NC2CC3(CCN(C)CC3)C2)ccc1Nc1ncc(C(F)(F)F)c(Cc2cccc3c2C(=O)N(C)C32CC2)n1 [Compound 101, 3-methoxy-4-((4-((2′-methyl-3′-oxospiro[cyclopropane-1,1′-isoindolin]-4′-yl)methyl)-5-(trifluoromethyl)pyrimidin-2-yl)amino)-N-(7-methyl-7-azaspiro[3.5]nonan-2-yl)benzamide]
> 7.70 | < 5.70 | 7.30 to 8.30 | COc1cc(C(=O)NC2CC3(CCN(C)CC3)C2)c(F)cc1Nc1ncc(C(F)(F)F)c(Cc2cccc3c2C(=O)N(C)C32CC2)n1 [Compound 102]
> 7.70 | < 5.70 | 7.30 to 8.30 | COc1cc(C(=O)NC2CCC3(CC2)CN(C)C3)ccc1Nc1ncc(C(F)(F)F)c(Cc2cccc3c2C(=O)N(C)C32CC2)n1 [Compound 103]
> 7.70 | < 5.70 | 7.30 to 8.30 | COc1cc(C(=O)NC2CCC3(CCN(C)C3)C2)ccc1Nc1ncc(C(F)(F)F)c(Cc2cccc3c2C(=O)N(C)C32CC2)n1 (stereo not drawn) [Compound 104]
> 7.70 | < 5.70 | 7.30 to 8.30 | COc1cc(C(=O)NC2COC3(CCN(C)C3)C2)ccc1Nc1ncc(C(F)(F)F)c(Cc2cccc3c2C(=O)N(C)C32CC2)n1 (stereo not drawn) [Compound 105]
> 7.70 | < 5.70 | 7.30 to 8.30 | COc1cc(C(=O)NC2CCC3(CC2)CCN(C)C3)ccc1Nc1ncc(C(F)(F)F)c(Cc2cccc3c2C(=O)N(C)C32CC2)n1 (stereo not drawn) [Compound 106]
> 7.70 | < 5.70 | < 7.30 | COc1cc(C(=O)NC2CCC3(CC2)CCN(C)CC3)ccc1Nc1ncc(C(F)(F)F)c(Cc2cccc3c2C(=O)N(C)C32CC2)n1 [Compound 107]
> 7.70 | < 5.70 | 7.30 to 8.30 | COc1cc(C(=O)NC2CCC23CCN(C)CC3)ccc1Nc1ncc(C(F)(F)F)c(Cc2cccc3c2C(=O)N(C)C32CC2)n1 (stereo not drawn) [Compound 108]
> 7.70 | < 5.70 | 7.30 to 8.30 | COc1cc(C(=O)NC2CCC3(CC2)CCN3C)ccc1Nc1ncc(C(F)(F)F)c(Cc2cccc3c2C(=O)N(C)C32CC2)n1 (stereo not drawn) [Compound 109]
> 7.70 | < 5.70 | < 7.30 | COc1cc(C(=O)NC2CCN3CCN(C)C3C2)ccc1Nc1ncc(C(F)(F)F)c(Cc2cccc3c2C(=O)N(C)C32CC2)n1 (stereo not drawn) [Compound 110]
> 7.70 | < 5.70 | 7.30 to 8.30 | COc1cc(N2CCN(C)CC2)ccc1Nc1ncc(C(F)(F)F)c(Cc2cccc3c2C(=O)N(C)C32CC2)n1 [Compound 111]
> 7.70 | < 5.70 | 7.30 to 8.30 | COc1cc(N2CCOCC2)ccc1Nc1ncc(C(F)(F)F)c(Cc2cccc3c2C(=O)N(C)C32CC2)n1 [Compound 112]
> 7.70 | < 5.70 | 7.30 to 8.30 | COc1cc(N2CCC(N3CCN(C)CC3)CC2)ccc1Nc1ncc(C(F)(F)F)c(Cc2cccc3c2C(=O)N(C)C32CC2)n1 [Compound 113]
> 7.70 | < 5.70 | < 7.30 | COc1cc(C(=O)NC2CCN(C)CC2)ccc1Nc1ncc(C)c(Oc2cccc3c2C(=O)N(C)C32CC2)n1 [Compound 115]
> 7.70 | < 5.70 | 7.30 to 8.30 | COc1cc(C(=O)NC2CCN(C)CC2)ccc1Nc1ncc(Br)c(Oc2cccc3c2C(=O)N(C)C32CC2)n1 [Compound 116]
> 7.70 | < 5.70 | > 8.30 | COc1cc(C2CCN(C)CC2)c(F)cc1Nc1ncc(C(F)(F)F)c(Oc2cccc3c2C(=O)N(C)C32CC2)n1 [Compound 119, 4′-((2-((5-fluoro-2-methoxy-4-(1-methylpiperidin-4-yl)phenyl)amino)-5-(trifluoromethyl)pyrimidin-4-yl)oxy)-2′-methylspiro[cyclopropane-1,1′-isoindolin]-3′-one]
> 7.70 | < 5.70 | > 8.30 | COc1cc(N2CCN(C)CC2)c(F)cc1Nc1ncc(C(F)(F)F)c(Oc2cccc3c2C(=O)N(C)C32CC2)n1 [Compound 122]

pIC50 [1] | pIC50 [2] | pIC50 [3] | SMILES
> 7.70 | < 5.70 | > 8.30 | COCCN1CCN(c2cc(OC)c(Nc3ncc(C(F)(F)F)c(Oc4cccc5c4C(=O)N(C)C54CC4)n3)cc2F)CC1 [Compound 123]
> 7.70 | < 5.70 | > 8.30 | COc1cc(N2CCN(CC(=O)N(C)C)CC2)c(F)cc1Nc1ncc(C(F)(F)F)c(Oc2cccc3c2C(=O)N(C)C32CC2)n1 [Compound 124]
> 7.70 | < 5.70 | > 8.30 | COc1cc(N2CC3(CN(C)C3)C2)c(F)cc1Nc1ncc(C(F)(F)F)c(Oc2cccc3c2C(=O)N(C)C32CC2)n1 [Compound 125]
> 7.70 | < 5.70 | > 8.30 | COc1cc(N2CCC3(CC2)CN(C)C3)c(F)cc1Nc1ncc(C(F)(F)F)c(Oc2cccc3c2C(=O)N(C)C32CC2)n1 [Compound 126]
> 7.70 | < 5.70 | > 8.30 | COc1cc(N2CCC3(CCN(C)C3)C2)c(F)cc1Nc1ncc(C(F)(F)F)c(Oc2cccc3c2C(=O)N(C)C32CC2)n1 (stereo not drawn) [Compound 127]
> 7.70 | < 5.70 | > 8.30 | COc1cc(N2CCC(N(C)C)CC2)c(F)cc1Nc1ncc(C(F)(F)F)c(Oc2cccc3c2C(=O)N(C)C32CC2)n1 [Compound 128]
> 7.70 | < 5.70 | 7.30 to 8.30 | COc1cc(N2CCN(C)CC2=O)c(F)cc1Nc1ncc(C(F)(F)F)c(Oc2cccc3c2C(=O)N(C)C32CC2)n1 [Compound 129]
> 7.70 | < 5.70 | 7.30 to 8.30 | COc1cc(N2CCN(C)CC2)ccc1Nc1ncc(C2CC2)c(Oc2cccc3c2C(=O)N(C)C32CC2)n1 [Compound 130, 4′-((5-cyclopropyl-2-((2-methoxy-4-(4-methylpiperazin-1-yl)phenyl)amino)pyrimidin-4-yl)oxy)-2′-methylspiro[cyclopropane-1,1′-isoindolin]-3′-one]
> 7.70 | < 5.70 | 7.30 to 8.30 | COc1cc(N2CC3(CCN(C)CC3)C2)ccc1Nc1ncc(C2CC2)c(Oc2cccc3c2C(=O)N(C)C32CC2)n1 [Compound 131, 4′-((5-cyclopropyl-2-((2-methoxy-4-(7-methyl-2,7-diazaspiro[3.5]nonan-2-yl)phenyl)amino)pyrimidin-4-yl)oxy)-2′-methylspiro[cyclopropane-1,1′-isoindolin]-3′-one]
> 7.70 | < 5.70 | 7.30 to 8.30 | COc1cc(C(=O)NC2CC3(CCN(C)CC3)C2)c(F)cc1Nc1ncc(Cl)c(Oc2cccc3c2C(=O)N(C)C32CC2)n1 [Compound 132, 4-((5-chloro-4-((2′-methyl-3′-oxospiro[cyclopropane-1,1′-isoindolin]-4′-yl)oxy)pyrimidin-2-yl)amino)-2-fluoro-5-methoxy-N-(7-methyl-7-azaspiro[3.5]nonan-2-yl)benzamide]
> 7.70 | < 5.70 | 7.30 to 8.30 | COc1cc(C(=O)NC2CC3(CCN(C)CC3)C2)ccc1Nc1ncc(Cl)c(Oc2cccc3c2C(=O)N(C)C32CC2)n1 [Compound 133, 4-((5-chloro-4-((2′-methyl-3′-oxospiro[cyclopropane-1,1′-isoindolin]-4′-yl)oxy)pyrimidin-2-yl)amino)-3-methoxy-N-(7-methyl-7-azaspiro[3.5]nonan-2-yl)benzamide]
> 7.70 | < 5.70 | > 8.30 | COc1cc(C2CCN(C)CC2)c(F)cc1Nc1ncc(Cl)c(Oc2cccc3c2C(=O)N(C)C32CC2)n1 [Compound 134, 4′-((5-chloro-2-((5-fluoro-2-methoxy-4-(1-methylpiperidin-4-yl)phenyl)amino)pyrimidin-4-yl)oxy)-2′-methylspiro[cyclopropane-1,1′-isoindolin]-3′-one]
> 7.70 | < 5.70 | > 8.30 | COc1cc(C2CCN(C)CC2)ccc1Nc1ncc(Cl)c(Oc2cccc3c2C(=O)N(C)C32CC2)n1 [Compound 135, 4′-((5-chloro-2-((2-methoxy-4-(1-methylpiperidin-4-yl)phenyl)amino)pyrimidin-4-yl)oxy)-2′-methylspiro[cyclopropane-1,1′-isoindolin]-3′-one]
> 7.70 | < 5.70 | > 8.30 | COc1cc(N2CCC(N3CCN(C)CC3)CC2)c(F)cc1Nc1ncc(Cl)c(Oc2cccc3c2C(=O)N(C)C32CC2)n1 [Compound 138]
> 7.70 | < 5.70 | 7.30 to 8.30 | COc1cc(N2CCN(C)CC2)c(F)cc1Nc1ncc(Cl)c(Oc2cccc3c2C(=O)N(C)C32CC2)n1 [Compound 140]
> 7.70 | < 5.70 | > 8.30 | COCCN1CCN(c2ccc(Nc3ncc(Cl)c(Oc4cccc5c4C(=O)N(C)C54CC4)n3)c(OC)c2)CC1 [Compound 142]
> 7.70 | < 5.70 | > 8.30 | COCCN1CCN(c2cc(OC)c(Nc3ncc(Cl)c(Oc4cccc5c4C(=O)N(C)C54CC4)n3)cc2F)CC1 [Compound 143]
